Laboratory results taken from patent publication US11180494B2, “Substituted amino acids as integrin inhibitors” (Pliant Therapeutics, Inc., priority 2018, dated 2021).

biological target: human integrin αvβ6 (Homo sapiens (Human), UniProt P06756+P18564); assay: Proximity-based integrin receptor binding assay (ALPHASCREEN) for inhibitor potency; settings: inhibition of binding of TGF-b1 LAP to human integrin αvβ6; values given in ranges
Description: To gauge the potency of inhibitors of binding to human integrin αvβ6, inhibitor compounds and integrin were incubated together with TGF-b1 LAP and biotinylated anti-LAP antibody plus acceptor and donor beads, following the manufacture's recommendations. The donor beads were coated with streptavidin. […] All incubations occurred at room temperatures in 50 mM Tris-HCl, pH 7.5, 0.1% BSA supplemented with 1 mM each CaCl2 and MgCl2.
The order of reagent addition was as follows:
1. Alpha-v-beta-6 integrin, test inhibitor compound, LAP, biotinylated anti-LAP antibody and acceptor beads were all added together.
2. After 2 hours, donor beads were added. After another 30 minute incubation, samples were then read.
Integrin binding was evaluated by exciting donor beads at 680 nm, and measuring the fluorescent signal produced, between 520-620 nm, using a Biotek Instruments (Winooski, Vt., USA) SynergyNeo2 multimode plate reader. […] Data analysis for IC50 determinations was carried out by nonlinear four parameter logistic regression analysis using Dotmatics ELN Software (Core Informatics Inc., Branford, Conn.).

Sequence of human integrin αvβ6 (P06756 31-992): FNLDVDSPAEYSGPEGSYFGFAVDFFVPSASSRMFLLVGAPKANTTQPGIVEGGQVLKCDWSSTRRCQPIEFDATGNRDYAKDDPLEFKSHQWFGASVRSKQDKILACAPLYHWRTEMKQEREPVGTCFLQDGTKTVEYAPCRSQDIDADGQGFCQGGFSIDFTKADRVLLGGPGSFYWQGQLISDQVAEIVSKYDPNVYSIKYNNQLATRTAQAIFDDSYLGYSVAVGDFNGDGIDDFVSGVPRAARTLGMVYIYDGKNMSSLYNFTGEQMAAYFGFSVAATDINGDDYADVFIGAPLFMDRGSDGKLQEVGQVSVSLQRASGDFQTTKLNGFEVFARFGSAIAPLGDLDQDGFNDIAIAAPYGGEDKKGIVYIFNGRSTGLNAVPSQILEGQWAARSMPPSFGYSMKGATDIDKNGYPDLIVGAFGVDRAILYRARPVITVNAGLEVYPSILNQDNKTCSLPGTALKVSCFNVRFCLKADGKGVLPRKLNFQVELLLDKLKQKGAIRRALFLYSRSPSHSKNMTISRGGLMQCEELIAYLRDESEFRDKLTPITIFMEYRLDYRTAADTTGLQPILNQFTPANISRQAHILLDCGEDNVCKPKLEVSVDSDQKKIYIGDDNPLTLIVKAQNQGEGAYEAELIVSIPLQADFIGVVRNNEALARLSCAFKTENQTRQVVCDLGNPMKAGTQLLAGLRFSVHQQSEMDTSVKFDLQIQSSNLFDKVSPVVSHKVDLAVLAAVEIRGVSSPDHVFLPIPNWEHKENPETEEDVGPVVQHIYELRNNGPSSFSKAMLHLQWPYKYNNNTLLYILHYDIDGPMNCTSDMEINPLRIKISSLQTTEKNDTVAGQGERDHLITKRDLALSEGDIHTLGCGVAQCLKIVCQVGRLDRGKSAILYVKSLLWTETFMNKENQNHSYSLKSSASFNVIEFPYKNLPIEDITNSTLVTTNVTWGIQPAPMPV
Sequence of human integrin αvβ6 (P18564 22-707): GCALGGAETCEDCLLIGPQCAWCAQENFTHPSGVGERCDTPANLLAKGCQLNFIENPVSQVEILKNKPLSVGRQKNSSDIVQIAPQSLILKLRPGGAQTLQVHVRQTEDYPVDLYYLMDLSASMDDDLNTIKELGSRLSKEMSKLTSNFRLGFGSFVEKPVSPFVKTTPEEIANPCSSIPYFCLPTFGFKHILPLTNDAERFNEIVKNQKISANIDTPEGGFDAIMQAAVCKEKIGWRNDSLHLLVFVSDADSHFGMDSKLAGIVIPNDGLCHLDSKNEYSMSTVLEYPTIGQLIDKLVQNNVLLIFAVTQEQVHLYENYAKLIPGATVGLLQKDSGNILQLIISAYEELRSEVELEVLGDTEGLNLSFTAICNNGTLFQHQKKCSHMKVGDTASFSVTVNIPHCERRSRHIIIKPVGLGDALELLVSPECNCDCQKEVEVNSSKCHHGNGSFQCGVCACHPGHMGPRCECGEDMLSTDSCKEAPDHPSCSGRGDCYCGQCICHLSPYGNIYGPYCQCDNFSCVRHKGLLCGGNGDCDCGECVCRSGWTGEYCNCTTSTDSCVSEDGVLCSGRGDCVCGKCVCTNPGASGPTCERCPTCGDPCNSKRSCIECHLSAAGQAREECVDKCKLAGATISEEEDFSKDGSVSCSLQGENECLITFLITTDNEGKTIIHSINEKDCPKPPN

Molecule | IC50
CC1(C(=O)NC(CCOCCCCc2ccc3c(n2)NCCC3)C(=O)O)CCOCC1 (stereo not drawn) [Compound 187, N-(4-methyltetrahydro-2H-pyran-4-carbonyl)-O-(4-(5,6,7,8-tetrahydro-1,8-naphthyridin-2-yl)butyl)homoserine] | 250 to 1000 nM
CC(=O)N1CC[C@@H](OC(=O)N[C@@H](CCO[C@H]2C[C@H](CCc3ccc4c(n3)NCCC4)C2)C(=O)O)C1 [Compound 139, N—((((R)-1-acetylpyrrolidin-3-yl)oxy)carbonyl)-O-(trans-3-(2-(5,6,7,8-tetrahydro-1,8-naphthyridin-2-yl)ethyl)cyclobutyl)homoserine] | > 1000 nM
O=C(N[C@@H](CCO[C@H]1C[C@H](CCc2ccc3c(n2)NCCC3)C1)C(=O)O)O[C@H]1CC[C@H](c2ccccc2)CC1 [Compound 148, N-(((trans-4-phenylcyclohexyl)oxy)carbonyl)-O-(trans-3-(2-(5,6,7,8-tetrahydro-1,8-naphthyridin-2-yl)ethyl)cyclobutyl)homoserine] | 250 to 1000 nM
N-isonicotinoyl-O-(trans-3-(2-(5,6,7,8-tetrahydro-1,8-naphthyridin-2-yl)ethyl)cyclobutyl)-D-homoserine [Compound 58] | > 1000 nM
CC(C)(C)OC(=O)N[C@@H](CCO[C@H]1C[C@@H](CCc2ccc3c(n2)NCCC3)C1)C(=O)O [Compound 18, N-(tert-butoxycarbonyl)-O-(cis-3-(2-(5,6,7,8-tetrahydro-1,8-naphthyridin-2-yl)ethyl)cyclobutyl)homoserine] | 50 to 250 nM
O=C(O)C(CCOCCCCc1ccc2c(n1)NCCC2)NC(=O)[C@@H](O)c1ccccc1 (stereo partly drawn) [Compound 74, N—((S)-2-hydroxy-2-phenylacetyl)-O-(4-(5,6,7,8-tetrahydro-1,8-naphthyridin-2-yl)butyl)homoserine] | > 1000 nM
CC(C)(Cc1ccccc1)C(=O)NC(CCO[C@H]1C[C@H](CCc2ccc3c(n2)NCCC3)C1)C(=O)O (stereo partly drawn) [Compound 85, N-(2,2-dimethyl-3-phenylpropanoyl)-O-(trans-3-(2-(5,6,7,8-tetrahydro-1,8-naphthyridin-2-yl)ethyl)cyclobutyl)homoserine] | 250 to 1000 nM
O=C(O)C(CCOCCCCc1ccc2c(n1)NCCC2)NC(=O)[C@@H](O)c1ccccc1 (stereo partly drawn) [Compound 75, N—((S)-2-hydroxy-2-phenylacetyl)-O-(4-(5,6,7,8-tetrahydro-1,8-naphthyridin-2-yl)butyl)homoserine] | 250 to 1000 nM
CC(C)(C)OC(=O)NC(CCOCCCCc1ccc2c(n1)NCCC2)C(=O)O (stereo not drawn) [Compound 13, N-(tert-butoxycarbonyl)-O-(4-(5,6,7,8-tetrahydro-1,8-naphthyridin-2-yl)butyl)homoserine] | 250 to 1000 nM
CC(C)(C)OC(=O)N1CCC(C(=O)N[C@@H](CCO[C@H]2C[C@H](CCc3ccc4c(n3)NCCC4)C2)C(=O)O)CC1 [Compound 160, N-(1-(tert-butoxycarbonyl)piperidine-4-carbonyl)-O-(trans-3-(2-(5,6,7,8-tetrahydro-1,8-naphthyridin-2-yl)ethyl)cyclobutyl)homoserine] | 50 to 250 nM
CC(C)(CC#N)C(=O)NC(CCO[C@H]1C[C@H](CCc2ccc3c(n2)NCCC3)C1)C(=O)O (stereo partly drawn) [Compound 93, N-(3-cyano-2,2-dimethylpropanoyl)-O-(trans-3-(2-(5,6,7,8-tetrahydro-1,8-naphthyridin-2-yl)ethyl)cyclobutyl)homoserine] | 50 to 250 nM
O=C(N[C@@H](CCO[C@H]1C[C@H](CCc2ccc3c(n2)NCCC3)C1)C(=O)O)c1ccc2ncccc2c1 [Compound 54, N-(quinoline-6-carbonyl)-O-(trans-3-(2-(5,6,7,8-tetrahydro-1,8-naphthyridin-2-yl)ethyl)cyclobutyl)homoserine] | 50 to 250 nM
O=C(N[C@@H](CCO[C@H]1C[C@H](CCc2ccc3c(n2)NCCC3)C1)C(=O)O)C1CCCc2cn[nH]c21 (relative stereo) [Compound 177, O-(trans-3-(2-(5,6,7,8-tetrahydro-1,8-naphthyridin-2-yl)ethyl)cyclobutyl)-N-(4,5,6,7-tetrahydro-1H-indazole-7-carbonyl)homoserine] | 50 to 250 nM
CC(C)c1ccc(C2(OC(=O)N[C@@H](CCO[C@H]3C[C@H](CCc4ccc5c(n4)NCCC5)C3)C(=O)O)CN(C(=O)OC(C)(C)C)C2)cc1 [Compound 158, N-(((1-(tert-butoxycarbonyl)-3-(4-isopropylphenyl)azetidin-3-yl)oxy)carbonyl)-O-(trans-3-(2-(5,6,7,8-tetrahydro-1,8-naphthyridin-2-yl)ethyl)cyclobutyl)homoserine] | < 50 nM
CC1(CC(=O)N[C@@H](CCO[C@H]2C[C@H](CCc3ccc4c(n3)NCCC4)C2)C(=O)O)CC1 [Compound 125, N-(2-(1-methylcyclopropyl)acetyl)-O-(trans-3-(2-(5,6,7,8-tetrahydro-1,8-naphthyridin-2-yl)ethyl)cyclobutyl)homoserine] | 50 to 250 nM
CC1(C(=O)NC(CCO[C@H]2C[C@H](CCc3ccc4c(n3)NCCC4)C2)C(=O)O)COC1 (stereo partly drawn) [Compound 88, N-(3-methyloxetane-3-carbonyl)-O-(trans-3-(2-(5,6,7,8-tetrahydro-1,8-naphthyridin-2-yl)ethyl)cyclobutyl)homoserine] | 50 to 250 nM
O=C(N[C@@H](CCO[C@H]1C[C@@H](CCc2ccc3c(n2)NCCC3)C1)C(=O)O)c1ccc(F)c(F)c1 [Compound 66, N-(3,4-difluorobenzoyl)-O-(cis-3-(2-(5,6,7,8-tetrahydro-1,8-naphthyridin-2-yl)ethyl)cyclobutyl)homoserine] | 50 to 250 nM

The remaining lines, values ahead:

IC50 | Molecule
< 50 nM | CC(C)OC(=O)N[C@@H](CCO[C@H]1C[C@H](CCc2ccc3c(n2)NCCC3)C1)C(=O)O [Compound 116, N-(isopropoxycarbonyl)-O-(trans-3-(2-(5,6,7,8-tetrahydro-1,8-naphthyridin-2-yl)ethyl)cyclobutyl)homoserine]
< 50 nM | O=C(O)[C@H](CCO[C@H]1C[C@H](CCc2ccc3c(n2)NCCC3)C1)NC(=O)C1(Cc2cccnc2)CC1 [Compound 185, N-(1-(pyridin-3-ylmethyl)cyclopropane-1-carbonyl)-O-(trans-3-(2-(5,6,7,8-tetrahydro-1,8-naphthyridin-2-yl)ethyl)cyclobutyl)homoserine]
< 50 nM | O=C(N[C@@H](CCO[C@H]1C[C@H](CCc2ccc3c(n2)NCCC3)C1)C(=O)O)c1ccccc1F [Compound 22, N-(2-fluorobenzoyl)-O-(trans-3-(2-(5,6,7,8-tetrahydro-1,8-naphthyridin-2-yl)ethyl)cyclobutyl)homoserine]
50 to 250 nM | O=C(N[C@@H](CCO[C@H]1C[C@H](CCc2ccc3c(n2)NCCC3)C1)C(=O)O)c1ccccc1N1CCOCC1 [Compound 168, N-(2-morpholinobenzoyl)-O-(trans-3-(2-(5,6,7,8-tetrahydro-1,8-naphthyridin-2-yl)ethyl)cyclobutyl)homoserine]
< 50 nM | O=C(N[C@@H](CCO[C@H]1C[C@H](CCc2ccc3c(n2)NCCC3)C1)C(=O)O)c1ccc(F)cc1F [Compound 24, N-(2,4-difluorobenzoyl)-O-(trans-3-(2-(5,6,7,8-tetrahydro-1,8-naphthyridin-2-yl)ethyl)cyclobutyl)homoserine]
< 50 nM | O=C(N[C@@H](CCO[C@H]1C[C@@H](CCc2ccc3c(n2)NCCC3)C1)C(=O)O)c1ccc(F)cc1 [Compound 15, N-(4-fluorobenzoyl)-O-(cis-3-(2-(5,6,7,8-tetrahydro-1,8-naphthyridin-2-yl)ethyl)cyclobutyl)homoserine]
50 to 250 nM | CC(C)(C)CC(=O)N[C@@H](CCO[C@H]1C[C@H](CCc2ccc3c(n2)NCCC3)C1)C(=O)O [Compound 122, N-(3,3-dimethylbutanoyl)-O-(trans-3-(2-(5,6,7,8-tetrahydro-1,8-naphthyridin-2-yl)ethyl)cyclobutyl)homoserine]
< 50 nM | O=C(O)C(CCO[C@H]1C[C@H](CCc2ccc3cccnc3n2)C1)Nc1ncnc2ccccc12 (stereo partly drawn) [Example 228, O-(trans-3-(2-(1,8-naphthyridin-2-yl)ethyl)cyclobutyl)-N-(quinazolin-4-yl)homoserine]
< 50 nM | O=C(N[C@@H](CCO[C@H]1C[C@H](CCc2ccc3c(n2)NCCC3)C1)C(=O)O)c1cc(F)ccc1F [Compound 33, N-(2,5-difluorobenzoyl)-O-(trans-3-(2-(5,6,7,8-tetrahydro-1,8-naphthyridin-2-yl)ethyl)cyclobutyl)homoserine]
50 to 250 nM | O=C(O)C(CCO[C@H]1C[C@H](CCc2ccc3c(n2)NCCC3)C1)NC(=O)[C@@H](O)c1ccccc1 (stereo partly drawn) [Compound 79, N—((S)-2-hydroxy-2-phenylacetyl)-O-(trans-3-(2-(5,6,7,8-tetrahydro-1,8-naphthyridin-2-yl)ethyl)cyclobutyl)homoserine]
< 50 nM | O=C(NC(CCO[C@H]1C[C@H](CCc2ccc3c(n2)NCCC3)C1)C(=O)O)c1ccncc1 (stereo partly drawn) [Compound 37, N-isonicotinoyl-O-(trans-3-(2-(5,6,7,8-tetrahydro-1,8-naphthyridin-2-yl)ethyl)cyclobutyl)homoserine]
< 50 nM | CC(C)(C(=O)N[C@@H](CCO[C@H]1C[C@H](CCc2ccc3c(n2)NCCC3)C1)C(=O)O)C1CCCCC1 [Compound 165, N-(2-cyclohexyl-2-methylpropanoyl)-O-(trans-3-(2-(5,6,7,8-tetrahydro-1,8-naphthyridin-2-yl)ethyl)cyclobutyl)homoserine]
< 50 nM | CC(C)N(C)C(=O)N[C@@H](CCO[C@H]1C[C@H](CCc2ccc3c(n2)NCCC3)C1)C(=O)O [Compound 120, N-(isopropyl(methyl)carbamoyl)-O-(trans-3-(2-(5,6,7,8-tetrahydro-1,8-naphthyridin-2-yl)ethyl)cyclobutyl)homoserine]
